The molecules below were run against S1P1/EDG1 (Homo sapiens, UniProt P21453) (assay: S1P1 CRE-bla CHOK1 reporter assay, inhibition of Forskolin induced cAMP). Conditions: agonist activity range, S1P1 CRE-bla CHOK1, 2 μM Forskolin; read-out: S1P1 ACTIVITY.
Assay type: cell-based
Method: Generation of S1P1-Mediated Inhibition of cAMP Reporter Assay
A mammalian expression plasmid containing S1P1/EDG1 cloned into pcDNA3.1 was purchased from Missouri S&T cDNA Resource Centre. […] S1P1/pcDNA3.1 was transfected into the CRE-bla CHO K1 (Invitrogen) cell line, and stable single cell clones were selected using standard techniques.
S1P1 CRE-Bla CHOK1 Reporter Assay—Characterization of S1P1 Agonists
Cells were seeded into 384-well black wall/clear bottom plates at 10^4 cells/well/19.5 μl assay media (DMEM-phenol free, 0.5% charcoal/dextran stripped serum, 2 mM glutamine, 0.1 mM NEAA, 1 mM Na-Pyruvate, 25 mM Hepes) and incubated for 18 hrs at 37° C. in 5% CO2. Dose response curves (10-point) were generated in 10 mM Hepes, 0.1% Pluronic F127, in the presence of Forskolin. Cells were treated with 0.5 μl compound in the presence of 2 μM Forskolin for 4 hrs at 37° C. The FRET-based β-lactamase fluorescent substrate (LiveBLAzer™-FRET B/G Loading Kit CC4-AM; Invitrogen) was prepared according to manufacturer's directions, and incubated with cells for 2 hrs at room temperature. […] Data was analyzed by non-linear regression to determine the EC50 for inhibition of Forskolin induced cAMP.

Chain of S1P1/EDG1 (P21453 whole entry): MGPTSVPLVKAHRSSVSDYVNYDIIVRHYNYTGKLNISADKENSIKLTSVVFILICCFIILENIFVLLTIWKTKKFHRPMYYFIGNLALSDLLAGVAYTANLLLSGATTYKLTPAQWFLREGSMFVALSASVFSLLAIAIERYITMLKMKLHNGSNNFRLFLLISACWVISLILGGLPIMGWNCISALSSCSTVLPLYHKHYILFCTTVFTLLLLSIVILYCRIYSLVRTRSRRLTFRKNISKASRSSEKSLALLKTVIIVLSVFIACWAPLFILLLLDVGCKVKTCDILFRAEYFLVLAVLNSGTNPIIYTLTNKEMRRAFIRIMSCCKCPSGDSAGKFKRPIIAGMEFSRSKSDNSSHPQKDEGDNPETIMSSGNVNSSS

| Compound | EC50 |
| --- | --- |
| CC(C)Oc1ccc(-c2nc(-c3cccc4c3CC[C@@H]4NCc3cncs3)no2)cc1C#N [Compound 161] | 0.05 to 0.5 nM |
| CC(C)Oc1ccc(-c2nc(-c3cccc4c3CC[C@H]4N)no2)cc1S(C)(=O)=O [Compound 252] | 0.5 to 5 nM |
| COCCN[C@H]1CCc2c(-c3noc(-c4ccc(OC(C)C)c(C#N)c4)n3)cccc21 [Compound 89] | 0.05 to 0.5 nM |
| CC(C)Oc1ccc(-c2nc(-c3cccc4c3CC[C@@H]4N3CCOC3=O)no2)cc1C#N [Compound 155] | 0.05 to 0.5 nM |
| CCOc1ccc(-c2nc(-c3cccc4c3CC[C@H]4N)no2)cc1C#N [Compound 94] | 0.5 to 5 nM |
| CC(C)Oc1ccc(-c2nc(-c3cccc4c3CC[C@H]4NCCO)no2)cc1Br [Compound 101] | 0.5 to 5 nM |
| CC(C)Oc1ccc(-c2nc(-c3cccc4c3CC[C@H]4O)no2)cc1C(F)(F)F [Compound 7] | 0.5 to 5 nM |
| COC(=O)C1CCN(C(=O)N[C@H]2CCc3c(-c4noc(-c5ccc(OC(C)C)c(C#N)c5)n4)cccc32)CC1 [Compound 237] | 0.05 to 0.5 nM |
| CNC(=O)C1CN([C@H]2CCc3c(-c4noc(-c5ccc(OC(C)C)c(C#N)c5)n4)cccc32)C1 [Compound 206] | 0.05 to 0.5 nM |
| CC(C)Oc1ccc(-c2nc(-c3cccc4c3CC[C@H]4NC(=O)OCCO)no2)cc1C#N [Compound 227] | 0.05 to 0.5 nM |
| CC(C)Oc1ccc(-c2nc(-c3cccc4c3CCC4N3CCN(CCO)CC3)no2)cc1C#N (racemic) [Compound 24] | 0.05 to 0.5 nM |
| CCN(CCO)[C@@H]1CCc2c(-c3noc(-c4ccc(OC(C)C)c(C#N)c4)n3)cccc21 [Compound 114] | 0.05 to 0.5 nM |
| COC(=O)N[C@H]1CCc2c(-c3noc(-c4ccc(OC(C)C)c(C#N)c4)n3)cccc21 [Compound 150] | 0.05 to 0.5 nM |
| CC(C)Oc1ccc(-c2nc(-c3cccc4c3CCC4N3CC[C@@H](N)C3)no2)cc1C#N (mixture of isomers) [Compound 31] | > 5 nM |
| CC(C)Oc1ccc(-c2nc(-c3cccc4c3CC[C@H]4NC(=O)N3CCC[C@@H](O)C3)no2)cc1C#N [Compound 219] | 0.5 to 5 nM |
| CC(C)Oc1ccc(-c2nc(-c3cccc4c3CC[C@H]4NC(=O)CO)no2)cc1C#N [Compound 65, (R)-N-(4-(5-(3 cyano-4-isopropoxyphenyl)-1,2,4-oxadiazol-3-yl)-2,3-dihydro-1H-inden-1-yl)-2-hydroxyacetamide] | < 0.05 nM |
| CC(C)Oc1ccc(-c2nc(-c3cccc4c3CC[C@H]4NS(=O)(=O)C3CC3)no2)cc1C#N [Compound 166] | 0.05 to 0.5 nM |
| COCCNC1CCc2c(-c3noc(-c4ccc(OC(C)C)c(C#N)c4)n3)cccc21 (stereo in doubt) [Compound 88] | 0.5 to 5 nM |
| CC(C)Oc1ccc(-c2nc(-c3cccc4c3CC[C@H]4NCC(C)(C)O)no2)cc1C#N [Compound 57] | 0.5 to 5 nM |
| CC(C)Oc1ccc(-c2nc(-c3cccc4c3CC[C@H]4NCC(=O)O)no2)cc1C#N [Compound 61] | < 0.05 nM |
| CC(C)Oc1ccc(-c2nc(-c3cccc4c3CC[C@H]4NC(=O)N3CC[C@H](O)C3)no2)cc1C#N [Compound 231] | 0.05 to 0.5 nM |
| CC(C)Oc1ccc(-c2nc(-c3cccc4c3CC[C@H]4NCCC(=O)O)no2)cc1C#N [Compound 62, (R)-3-((4-(5-(3-cyano-4-isopropoxyphenyl)-1,2,4-oxadiazol-3-yl)-2,3-dihydro-1H-inden-1-yl)amino)propanoic acid] | < 0.05 nM |

| Compound | EC50 |
| --- | --- |
| N#Cc1cccc(-c2nc(-c3cccc4c3CC[C@H]4N)no2)c1 [Compound 92, (R)-3-(3-(1-amino-2,3-dihydro-1H-inden-4-yl)-1,2,4-oxadiazol-5-yl)benzonitrile] | > 5 nM |
| CCOc1ccc(-c2nc(-c3cccc4c3CC[C@@H]4O)no2)cc1OCC [Compound 2] | 0.05 to 0.5 nM |
| CC(C)Oc1ccc(-c2nc(-c3cccc4c3CCC4NC(CO)CO)no2)cc1C#N (racemic) [Compound 17, 5-(3-(1-((1,3-dihydroxypropan-2-yl)amino)-2,3-dihydro-1H-inden-4-yl)-1,2,4-oxadiazol-5-yl)-2-isopropoxybenzonitrile] | 0.05 to 0.5 nM |
| CC(C)Oc1ccc(-c2nc(-c3cccc4c3CC[C@H]4NCC(=O)N3CC[C@@H](O)C3)no2)cc1C#N [Compound 133] | 0.05 to 0.5 nM |
| Cc1cc(CN[C@H]2CCc3c(-c4noc(-c5ccc(OC(C)C)c(C#N)c5)n4)cccc32)[nH]n1 [Compound 162] | 0.5 to 5 nM |
| CN[C@@H]1CCc2c(-c3noc(-c4ccc(OC(C)C)c(C#N)c4)n3)cccc21 [Compound 143] | 0.05 to 0.5 nM |
| CC(C)Oc1ccc(-c2nc(-c3cccc4c3CC[C@@H]4NS(=O)(=O)CCN3CC[C@@H](O)C3)no2)cc1C#N [Compound 173] | 0.5 to 5 nM |
| CC(=O)N[C@H]1CCc2c(-c3noc(-c4ccc(OC(C)C)c(C#N)c4)n3)cccc21 [Compound 139, (S)-N-(4-(5-(3 cyano-4-isopropoxyphenyl)-1,2,4-oxadiazol-3-yl)-2,3-dihydro-1H-inden-1-yl)acetamide] | 0.05 to 0.5 nM |
| CNC(=O)CS(=O)(=O)N[C@H]1CCc2c(-c3noc(-c4ccc(OC(C)C)c(C#N)c4)n3)cccc21 [Compound 198] | 0.05 to 0.5 nM |
| CC(C)Oc1ccc(-c2nc(-c3cccc4c3CC[C@H]4N(CCO)CCO)no2)cc1C#N [Compound 118] | 0.05 to 0.5 nM |
| CC(C)Oc1ccc(-c2nc(-c3cccc4c3CC[C@@H]4NS(=O)(=O)CCC(=O)O)no2)cc1C#N [Compound 185] | < 0.05 nM |
| COC(=O)CCCCNC1CCc2c(-c3noc(-c4ccc(OC(C)C)c(C#N)c4)n3)cccc21 (racemic) [Compound 147] | < 0.05 nM |
| CC(C)Oc1ccc(-c2nc(-c3cccc4c3CC[C@@H]4NC(=O)N3CCC(C(=O)O)CC3)no2)cc1C#N [Compound 239] | 0.05 to 0.5 nM |
| CC(C)Oc1ccc(-c2nc(-c3cccc4c3CC[C@H]4NCC(=O)N3CCCC3)no2)cc1C#N [Compound 129] | 0.05 to 0.5 nM |
| CC(C)Oc1ccc(-c2nc(-c3cccc4c3CC[C@@H]4N3CC(O)C3)no2)cc1C#N [Compound 84, (S)-5-(3-(1-(3-hydroxyazetidin-1-yl)-2,3-dihydro-1H-inden-4-yl)-1,2,4-oxadiazol-5-yl)-2-isopropoxybenzonitrile] | 0.05 to 0.5 nM |
| CC(C)Oc1ccc(-c2nc(-c3cccc4c3CC[C@H]4NC(=O)N3CCC(O)CC3)no2)cc1C#N [Compound 240] | 0.5 to 5 nM |
| N#Cc1cc(-c2nc(-c3cccc4c3CC[C@H]4N)no2)ccc1OCC1CC1 [Compound 100, (R)-5-(3-(1-amino-2,3-dihydro-1H-inden-4-yl)-1,2,4-oxadiazol-5-yl)-2-(cyclopropylmethoxy)benzonitrile] | 0.5 to 5 nM |
| CC(C)Oc1ccc(-c2nc(-c3cccc4c3CC[C@@H]4NC[C@@H](O)[C@H](O)[C@H](O)CO)no2)cc1C#N [Compound 119, 2-isopropoxy-5-(3-((S)-1-(((2R,3S,4R)-2,3,4,5-tetrahydroxypentyl)amino)-2,3-dihydro-1H-inden-4-yl)-1,2,4-oxadiazol-5-yl)benzonitrile] | 0.5 to 5 nM |
| CC(C)Oc1ccc(-c2nc(-c3cccc4c3CC[C@H]4NC(=O)N3CC[C@@H](N(C)C)C3)no2)cc1C#N [Compound 242] | 0.5 to 5 nM |
| CC(C)Oc1ccc(-c2nc(-c3cccc4c3CC[C@@H]4NCCCC(=O)O)no2)cc1C#N [Compound 146] | < 0.05 nM |
| CC(C)Oc1ccc(-c2nc(-c3cccc4c3CC[C@H]4NC(=O)N3CC[C@@H](N)C3)no2)cc1C#N [Compound 221] | 0.05 to 0.5 nM |
| CC(C)Oc1ccc(-c2nc(-c3cccc4c3CC[C@@H]4NC(=O)N3CC[C@H](O)C3)no2)cc1C#N [Compound 233] | 0.05 to 0.5 nM |

Source: US9388147B2 (Receptos, Inc., priority 2009, dated 2016)
